Experiments:
[1] = target: D(3) dopamine receptor (Homo sapiens, UniProt P35462); assay: Binding affinity on human Dopamine receptor D3 expressed in CHO cells using radioligand [3H]-YM 09151; format: cell-based
[2] = target: T1, D(4) dopamine receptor (Homo sapiens, UniProt P21917); assay: Binding affinity on human Dopamine receptor D4 expressed in CHO cells using radioligand [3H]-YM 09151; format: cell-based
T1 sequence (P21917 whole entry): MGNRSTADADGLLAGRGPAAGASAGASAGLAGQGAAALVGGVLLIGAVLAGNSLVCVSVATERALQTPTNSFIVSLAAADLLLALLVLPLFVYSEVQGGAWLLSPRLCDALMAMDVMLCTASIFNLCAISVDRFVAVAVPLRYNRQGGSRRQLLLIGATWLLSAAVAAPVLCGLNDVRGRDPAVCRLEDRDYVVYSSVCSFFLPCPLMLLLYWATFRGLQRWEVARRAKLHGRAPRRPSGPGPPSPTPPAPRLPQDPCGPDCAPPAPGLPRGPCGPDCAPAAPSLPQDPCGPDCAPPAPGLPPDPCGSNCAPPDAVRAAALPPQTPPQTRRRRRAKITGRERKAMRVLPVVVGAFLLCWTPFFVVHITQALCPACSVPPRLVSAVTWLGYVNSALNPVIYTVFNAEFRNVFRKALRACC

[3] = target: T2, 5-hydroxytryptamine receptor 1A (Homo sapiens, UniProt P08908); assay: Binding affinity against 5-hydroxytryptamine 1A receptor
T2 sequence (P08908 whole entry): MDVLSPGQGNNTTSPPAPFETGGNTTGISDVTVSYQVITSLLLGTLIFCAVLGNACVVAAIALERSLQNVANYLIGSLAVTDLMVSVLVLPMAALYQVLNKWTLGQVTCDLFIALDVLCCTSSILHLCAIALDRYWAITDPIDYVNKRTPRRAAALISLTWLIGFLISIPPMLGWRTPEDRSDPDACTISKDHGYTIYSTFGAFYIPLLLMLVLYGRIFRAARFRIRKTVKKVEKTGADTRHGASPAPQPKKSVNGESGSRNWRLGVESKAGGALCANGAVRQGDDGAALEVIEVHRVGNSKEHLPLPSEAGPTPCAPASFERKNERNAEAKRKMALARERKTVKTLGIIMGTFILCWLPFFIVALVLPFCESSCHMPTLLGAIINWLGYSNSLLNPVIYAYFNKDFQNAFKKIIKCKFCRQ

Sequence of D(3) dopamine receptor (P35462 whole entry): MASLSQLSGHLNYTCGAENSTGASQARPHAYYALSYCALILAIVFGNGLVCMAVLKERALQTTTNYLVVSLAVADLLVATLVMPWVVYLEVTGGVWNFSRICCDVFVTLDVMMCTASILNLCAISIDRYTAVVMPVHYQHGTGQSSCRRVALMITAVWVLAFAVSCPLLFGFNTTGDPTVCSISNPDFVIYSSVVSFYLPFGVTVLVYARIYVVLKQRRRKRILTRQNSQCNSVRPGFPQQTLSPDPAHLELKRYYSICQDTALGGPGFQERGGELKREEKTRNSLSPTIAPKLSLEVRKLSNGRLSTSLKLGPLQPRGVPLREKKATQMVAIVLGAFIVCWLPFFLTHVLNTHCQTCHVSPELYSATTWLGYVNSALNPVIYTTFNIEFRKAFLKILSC

Row | Compound | Ki [1] [nM] | Ki [2] [nM] | Ki [3] [nM]
1 | c1ccc(-c2nc(CN3CCN(c4ccncn4)CC3)c[nH]2)cc1 | > 8000 | 1400 | –
2 | c1ccc(-c2ncc(CN3CCN(c4ncccn4)CC3)[nH]2)cc1 | > 8000 | 3.8 | 181
3 | c1ccc(-c2nc(CN3CCN(c4ccccc4)CC3)c[nH]2)cc1 | 193 | 5.2 | –
4 | c1ccc(-c2ncc(CN3CCN(c4ccncc4)CC3)[nH]2)cc1 | > 8000 | > 7300 | –
5 | c1ccc(-c2nc(CN3CCN(c4cccnc4)CC3)c[nH]2)cc1 | – | 73 | –
6 | Cc1nc(-c2ccccc2)[nH]c1CN1CCN(c2ncccn2)CC1 | 2980 | 6 | –
7 | c1ccc(-c2nc(CN3CCN(c4cnccn4)CC3)c[nH]2)cc1 | > 6660 | 50 | –
8 | c1ccc(-c2ncc(CN3CCN(c4ccccn4)CC3)[nH]2)cc1 | 1530 | 8.5 | –

From ChEMBL document CHEMBL1130009 (J Med Chem, 1997)
